Experiments:
Assay type in all cases: ADME
[1] = (§1) The drug is tested on the gut metagenome community of P-02 with ENA study accession number: PRJEB31790 for biotransformation under microaerobic condition. The drug concentrations were measured over 7 timepoints collected between 0 and 12 hours of incubation by liquid-chromatography-coupled mass spectrometry (LC–MS); design: dose 5 uM, timepoint 0, 0.75, 1.5, 3, 6, 9, 12 hours; conditions: 5 µM
[2] = The drug is tested on Lactobacillus ruminis strain: ATCC25644 for biotransformation under anaerobic condition. The drug concentrations were measured over 6 timepoints collected between 0 and 12 hours of incubation by liquid-chromatography-coupled mass spectrometry (LC–MS); design: dose 5 uM, timepoint 0, 1.5, 3, 6, 9, 12 hours; conditions: ligilactobacillus ruminis, 5 µM
[3] = The drug is tested on Capnocytophaga ochracea strain: DSM7271 for biotransformation under microaerobic condition. The drug concentrations were measured over 6 timepoints collected between 0 and 12 hours of incubation by liquid-chromatography-coupled mass spectrometry (LC–MS); design: dose 5 uM, timepoint 0, 1.5, 3, 6, 9, 12 hours; conditions: 5 µM
[4] = The drug is tested on Enterococcus faecalis strain: ATCC29212 for biotransformation under microaerobic condition. The drug concentrations were measured over 6 timepoints collected between 0 and 12 hours of incubation by liquid-chromatography-coupled mass spectrometry (LC–MS); design: dose 5 uM, timepoint 0, 1.5, 3, 6, 9, 12 hours; conditions: 5 µM
[5] = The drug is tested on Lactobacillus ruminis strain: ATCC25644 for biotransformation under microaerobic condition. The drug concentrations were measured over 6 timepoints collected between 0 and 12 hours of incubation by liquid-chromatography-coupled mass spectrometry (LC–MS); design: dose 5 uM, timepoint 0, 1.5, 3, 6, 9, 12 hours; conditions: ligilactobacillus ruminis, 5 µM
[6] = The drug is tested on Roseburia intestinalis strain: DSM14610 for biotransformation under anaerobic condition. The drug concentrations were measured over 6 timepoints collected between 0 and 12 hours of incubation by liquid-chromatography-coupled mass spectrometry (LC–MS); design: dose 5 uM, timepoint 0, 1.5, 3, 6, 9, 12 hours; conditions: 5 µM
[7] = The drug is tested on Alloscardovia omnicolens strain: DSM21503 for biotransformation under anaerobic condition. The drug concentrations were measured over 6 timepoints collected between 0 and 12 hours of incubation by liquid-chromatography-coupled mass spectrometry (LC–MS); design: dose 5 uM, timepoint 0, 1.5, 3, 6, 9, 12 hours; conditions: 5 µM
[8] = as §1, with “A-04” for “P-02”; design: dose 5 uM, timepoint 0, 0.75, 1.5, 3, 6, 9, 12 hours; conditions: 5 µM
[9] = as §1, with “A-10” for “P-02”; design: dose 5 uM, timepoint 0, 0.75, 1.5, 3, 6, 9, 12 hours; conditions: 5 µM
[10] = The drug is tested on Actinomyces graevenitzii strain: DSM15540 for biotransformation under microaerobic condition. The drug concentrations were measured over 6 timepoints collected between 0 and 12 hours of incubation by liquid-chromatography-coupled mass spectrometry (LC–MS); design: dose 5 uM, timepoint 0, 1.5, 3, 6, 9, 12 hours; conditions: 5 µM
[11] = The drug is tested on Enterococcus faecalis strain: ATCC29212 for biotransformation under anaerobic condition. The drug concentrations were measured over 6 timepoints collected between 0 and 12 hours of incubation by liquid-chromatography-coupled mass spectrometry (LC–MS); design: dose 5 uM, timepoint 0, 1.5, 3, 6, 9, 12 hours; conditions: 5 µM
[12] = The drug is tested on Streptococcus mitis strain: DSM12643 for biotransformation under microaerobic condition. The drug concentrations were measured over 6 timepoints collected between 0 and 12 hours of incubation by liquid-chromatography-coupled mass spectrometry (LC–MS); design: dose 5 uM, timepoint 0, 1.5, 3, 6, 9, 12 hours; conditions: 5 µM
[13] = The drug is tested on Dorea formicigenerans strain: DSM3992 for biotransformation under anaerobic condition. The drug concentrations were measured over 6 timepoints collected between 0 and 12 hours of incubation by liquid-chromatography-coupled mass spectrometry (LC–MS); design: dose 5 uM, timepoint 0, 1.5, 3, 6, 9, 12 hours; conditions: 5 µM
[14] = The drug is tested on Alloscardovia omnicolens strain: DSM21503 for biotransformation under microaerobic condition. The drug concentrations were measured over 6 timepoints collected between 0 and 12 hours of incubation by liquid-chromatography-coupled mass spectrometry (LC–MS); design: dose 5 uM, timepoint 0, 1.5, 3, 6, 9, 12 hours; conditions: 5 µM
[15] = as §1, with “A-05” for “P-02”, “anaerobic” for “microaerobic”; design: dose 5 uM, timepoint 0, 0.75, 1.5, 3, 6, 9, 12 hours; conditions: 5 µM
[16] = The drug is tested on Clostridium scindens strain: DSM5676 for biotransformation under anaerobic condition. The drug concentrations were measured over 6 timepoints collected between 0 and 12 hours of incubation by liquid-chromatography-coupled mass spectrometry (LC–MS); design: dose 5 uM, timepoint 0, 1.5, 3, 6, 9, 12 hours; conditions: 5 µM
[17] = as §1, with “A-09” for “P-02”; design: dose 5 uM, timepoint 0, 0.75, 1.5, 3, 6, 9, 12 hours; conditions: 5 µM
[18] = The drug is tested on Prevotella copri strain: DSM18205 for biotransformation under anaerobic condition. The drug concentrations were measured over 6 timepoints collected between 0 and 12 hours of incubation by liquid-chromatography-coupled mass spectrometry (LC–MS); design: dose 5 uM, timepoint 0, 1.5, 3, 6, 9, 12 hours; conditions: segatella copri, 5 µM
[19] = as §1, with “P-01” for “P-02”, “anaerobic” for “microaerobic”; design: dose 5 uM, timepoint 0, 0.75, 1.5, 3, 6, 9, 12 hours; conditions: 5 µM
[20] = The drug is tested on Streptococcus salivarius strain: DSM20560 for biotransformation under anaerobic condition. The drug concentrations were measured over 6 timepoints collected between 0 and 12 hours of incubation by liquid-chromatography-coupled mass spectrometry (LC–MS); design: dose 5 uM, timepoint 0, 1.5, 3, 6, 9, 12 hours; conditions: 5 µM
[21] = as §1, with “A-01” for “P-02”, “anaerobic” for “microaerobic”; design: dose 5 uM, timepoint 0, 0.75, 1.5, 3, 6, 9, 12 hours; conditions: 5 µM
[22] = as §1, with “A-04” for “P-02”, “anaerobic” for “microaerobic”; design: dose 5 uM, timepoint 0, 0.75, 1.5, 3, 6, 9, 12 hours; conditions: 5 µM
[23] = as §1, with “T-05” for “P-02”, “anaerobic” for “microaerobic”; design: dose 5 uM, timepoint 0, 0.75, 1.5, 3, 6, 9, 12 hours; conditions: 5 µM
[24] = as §1, with “anaerobic” for “microaerobic”; design: dose 5 uM, timepoint 0, 0.75, 1.5, 3, 6, 9, 12 hours; conditions: 5 µM
[25] = The drug is tested on Bacteroides fragilis strain: DSM2151 for biotransformation under anaerobic condition. The drug concentrations were measured over 6 timepoints collected between 0 and 12 hours of incubation by liquid-chromatography-coupled mass spectrometry (LC–MS); design: dose 5 uM, timepoint 0, 1.5, 3, 6, 9, 12 hours; conditions: 5 µM
[26] = The drug is tested on Bacteroides thetaiotaomicron strain: DSM2079 for biotransformation under anaerobic condition. The drug concentrations were measured over 6 timepoints collected between 0 and 12 hours of incubation by liquid-chromatography-coupled mass spectrometry (LC–MS); design: dose 5 uM, timepoint 0, 1.5, 3, 6, 9, 12 hours; conditions: 5 µM
[27] = as §1, with “A-07” for “P-02”; design: dose 5 uM, timepoint 0, 0.75, 1.5, 3, 6, 9, 12 hours; conditions: 5 µM
[28] = as §1, with “T-05” for “P-02”; design: dose 5 uM, timepoint 0, 0.75, 1.5, 3, 6, 9, 12 hours; conditions: 5 µM
[29] = The drug is tested on Bacteroides uniformis strain: DSM6597 for biotransformation under anaerobic condition. The drug concentrations were measured over 6 timepoints collected between 0 and 12 hours of incubation by liquid-chromatography-coupled mass spectrometry (LC–MS); design: dose 5 uM, timepoint 0, 1.5, 3, 6, 9, 12 hours; conditions: 5 µM
[30] = The drug is tested on Faecalibacterium prausnitzii strain: DSM17677 for biotransformation under anaerobic condition. The drug concentrations were measured over 6 timepoints collected between 0 and 12 hours of incubation by liquid-chromatography-coupled mass spectrometry (LC–MS); design: dose 5 uM, timepoint 0, 1.5, 3, 6, 9, 12 hours; conditions: faecalibacterium duncaniae, 5 µM

Row | Bacterial Biotransformation [1] | Bacterial Biotransformation [2] | Bacterial Biotransformation [3] | Bacterial Biotransformation [4] | Bacterial Biotransformation [5] | Bacterial Biotransformation [6] | Bacterial Biotransformation [7] | Bacterial Biotransformation [8] | Bacterial Biotransformation [9] | Bacterial Biotransformation [10] | Bacterial Biotransformation [11] | Bacterial Biotransformation [12] | Bacterial Biotransformation [13] | Bacterial Biotransformation [14] | Bacterial Biotransformation [15] | Bacterial Biotransformation [16] | Bacterial Biotransformation [17] | Bacterial Biotransformation [18] | Bacterial Biotransformation [19] | Bacterial Biotransformation [20] | SMILES | other results
1 | Compound metabolized | Compound NOT metabolized | Compound NOT metabolized | Compound NOT metabolized | Compound NOT metabolized | Compound NOT metabolized | Compound NOT metabolized | Compound metabolized | Compound metabolized | Compound NOT metabolized | Compound NOT metabolized | Compound NOT metabolized | Compound NOT metabolized | Compound NOT metabolized | Compound metabolized | Compound metabolized | Compound metabolized | Compound NOT metabolized | Compound metabolized | Compound NOT metabolized | C[C@]12C=CC(=O)C=C1CC[C@@H]1[C@@H]2[C@@H](O)C[C@@]2(C)[C@H]1CC[C@]2(O)C(=O)CO [PREDNISOLONE] | Bacterial Biotransformation [21]: Compound metabolized; Bacterial Biotransformation [22]: Compound metabolized; Bacterial Biotransformation [23]: Compound NOT metabolized; Bacterial Biotransformation [24]: Compound metabolized; Bacterial Biotransformation [25]: Compound NOT metabolized; Bacterial Biotransformation [26]: Compound NOT metabolized; Bacterial Biotransformation [27]: Compound metabolized; Bacterial Biotransformation [28]: Compound NOT metabolized; Bacterial Biotransformation [29]: Compound NOT metabolized; Bacterial Biotransformation [30]: Compound NOT metabolized
2 | Compound NOT metabolized | Compound NOT metabolized | Compound NOT metabolized | Compound NOT metabolized | Compound NOT metabolized | Compound NOT metabolized | Compound NOT metabolized | Compound NOT metabolized | Compound NOT metabolized | Compound NOT metabolized | Compound NOT metabolized | Compound NOT metabolized | Compound NOT metabolized | Compound NOT metabolized | Compound NOT metabolized | Compound NOT metabolized | Compound NOT metabolized | Compound NOT metabolized | Compound NOT metabolized | Compound NOT metabolized | NS(=O)(=O)c1cc(C(=O)O)c(NCc2ccco2)cc1Cl [FUROSEMIDE] | Bacterial Biotransformation [21]: Compound NOT metabolized; Bacterial Biotransformation [22]: Compound NOT metabolized; Bacterial Biotransformation [23]: Compound NOT metabolized; Bacterial Biotransformation [24]: Compound NOT metabolized; Bacterial Biotransformation [25]: Compound NOT metabolized; Bacterial Biotransformation [26]: Compound NOT metabolized; Bacterial Biotransformation [27]: Compound NOT metabolized; Bacterial Biotransformation [28]: Compound NOT metabolized; Bacterial Biotransformation [29]: Compound NOT metabolized; Bacterial Biotransformation [30]: Compound NOT metabolized
3 | Compound NOT metabolized | Compound NOT metabolized | Compound NOT metabolized | Compound metabolized | Compound NOT metabolized | Compound metabolized | Compound metabolized | Compound metabolized | Compound NOT metabolized | Compound metabolized | Compound metabolized | Compound NOT metabolized | Compound metabolized | Compound NOT metabolized | Compound metabolized | Compound metabolized | Compound metabolized | Compound NOT metabolized | Compound NOT metabolized | Compound metabolized | CO[C@H]1C[C@@H]2CC[C@@H](C)[C@@](O)(O2)C(=O)C(=O)N2CCCC[C@H]2C(=O)O[C@H]([C@H](C)C[C@@H]2CC[C@@H](O)[C@H](OC)C2)CC(=O)[C@H](C)/C=C(\C)[C@@H](O)[C@@H](OC)C(=O)[C@H](C)C[C@H](C)/C=C/C=C/C=C/1C [SIROLIMUS] | Bacterial Biotransformation [21]: Compound NOT metabolized; Bacterial Biotransformation [22]: Compound metabolized; Bacterial Biotransformation [23]: Compound NOT metabolized; Bacterial Biotransformation [24]: Compound NOT metabolized; Bacterial Biotransformation [25]: Compound NOT metabolized; Bacterial Biotransformation [26]: Compound NOT metabolized; Bacterial Biotransformation [27]: Compound metabolized; Bacterial Biotransformation [28]: Compound NOT metabolized; Bacterial Biotransformation [29]: Compound metabolized; Bacterial Biotransformation [30]: Compound NOT metabolized

Reference: ChEMBL document CHEMBL5724806, “Unraveling interindividual differences and functional consequences of gut microbial metabolism of immunosuppressants” (2024)
